Assays:
[1] = test system: cancer cells; conditions: in vivo; cited from earlier work
[2] = test system: cancer cells; conditions: cited from earlier work
[3] = test system: HCT116 cells; experiment: In vivo liver metastasis after intra-splenic injection; design: species or system Mice; conditions: subcutaneous injection twice a day for 3 weeks; FIG. 11
Experimental: Cells were maintained in RPMI-1640 medium (Welgene, Daegu, South Korea) supplemented with 10% fetal bovine serum (Welgene, Daegu, South Korea), 100 IU/ml penicillin, and 100 μg/ml streptomycin (Welgene, Daegu, South Korea) in a humidified atmosphere of 5% CO2, at 37° C. Calcium lactate (CaLa) was purchased from Sigma-Aldrich (St Louis, MO, USA).
Mice were anesthetized with a 2% isoflurane. 5×10^6 of HCT116 cells were suspended in the 100 μL phosphate buffered saline for one injection. A small left abdominal flank incision was made and the spleen was exteriorized for the intra-splenic injection. The prepared cells were injected into the spleen with a 30-gauge needle. To prevent tumor cell leakage and bleeding, a cotton swab was held over the site of injection for 1 min. The injected spleen was returned to the abdomen and the wound was sutured with 6-0 black silk.

[4] = Stability of calcium lactate in water and acidic conditions; type: physicochemical
Text: However, the drug is very unstable in water, especially under acidic conditions, and rapidly degraded. Therefore, it is difficult for this drug to show pharmaceutical efficacy with a general oral formulation because it is readily decomposed in the acidic environment of the stomach upon oral administration. Calcium lactate is also not absorbed when it reaches the large intestines because it is destroyed by enzymes present in the large intestine.

[5] = test system: cancer cell lines; conditions: cited from earlier work
[6] = test system: Human colorectal cancer cells; experiment: In vivo efficacy of long-acting formulation, flank xenograft; design: species or system Balb/c nude mice; conditions: 2 mg/kg subcutaneously B.I.D. for 21 days; FIG. 8
Experimental: Human colorectal cancer cells (5×10^6) were transplanted to the flank of Balb/c nude mice. […] Group 2: […] Group 3: […] Group 4: […] Tumor volume was measured 3 times per week until the end of experiment and was recorded by calculating minimum (M) and maximum (L) linear size of the tumors (L×M^2/2). Tumor weight was measured after autopsy on the final day of experiment. Tumor mass was sectioned to 5 μm and then stained with hematoxylin and eosin for histological analysis.

CC(O)C(=O)[O-].CC(O)C(=O)[O-].[Ca+2] (stereo not shown) [calcium lactate]
growth of cancer cells in animal models [1]: suppressed
levels of growth, metastasis (migration) and tube formation of the cancer cells [2]: decreased
levels of lactate, LDH-B, pyruvate, PDH and α-KG in cells [2]: increased
levels of β-catenin, PARP, HIF-1α and VEGF in cells [2]: decreased
inflammatory response in developed tumor [3]: induced
liver metastasis as compared to the control [3]: suppressed
stability in water, especially under acidic conditions [4]: very unstable
anticancer effect in combination with conventional radiation ([5]; decreased amount of radiation): equivalent anticancer effect
anticancer effect in combination with well-known anticancer drugs ([5]; decreased concentration of the anticancer drugs): higher anticancer effect
tumor size versus control group [6]: clearly smaller than the control group

Source: US12059397B2 (METIMEDI PHARMACEUTICALS CO., LTD., priority 2016, dated 2024)
